Experimental data: patent publication US20040018581A1, “Method for discovering substances for inhibiting enzymes” (Pharmacia and UpJohn Company, priority 2002, published 2004)

How the values were obtained:
[1] = tested on: Δgpd1-pYES2/m1pdh (Saccharomyces cerevisiae Δgpd1 expressing Eimeria tenella m1pdh); assay: Growth inhibition of yeast transformant Δgpd1-pYES2/m1pdh in liquid YEPD with or without 1.5 M NaCl (OD 600); format: cell-based
Description: (§1) Transformants growing on high salt plates were picked and grown in 18×150 mm glass culture tubes containing 10 ml liquid YEPD medium or liquid YEPD medium with 1.5 M NaCl. These tubes were inoculated with approximately 10^5 cells and cultured at 30° C. on a roller bottle. Growth rates were recorded in terms of optical density values at various times after inoculation. Growth rates were also monitored in 96-well plates using the indicator dye Alamar Blue (BioSource International, Camarillo, Calif.) as previously described by Klein et al., (1997b). In 96-well plate experiments, each well contained approximately 10^4 cells (in 20 ul medium) inoculated into 180 ul liquid YEPD medium or liquid YEPD medium containing 1.5 M NaCl. These plates were then incubated at 30° C. for 24 or 48 hours. At that time, 20 ul Alamar Blue solution was added to each well and the color allowed to develop for 5-30 minutes. Color changes in each well were noted after visual inspection and recorded.
(§2) Nitrophenide, a known inhibitor of MIPDH (Schmatz 1997), was used to validate the assay. The Δgpd1transformed with pYES21/m1pdh was grown in liquid YEPD medium, either supplemented with 1.5 M NaCal or not and containing one of 3 concentrations of nitrophenide (Aldrich Chemical Co.) dissolved in DMSO. Experiments were conducted in glass culture tubes prepared and processed as described above. Growth in nitrophenide-containing media was compared to growth in identical medium lacking nitrophenide by measuring and recording changes at OD 600 nm after 24, 48 or 72 hours in culture as described above.
(§3) Test groups of each sample organism were inoculated into liquid cultures of YEPD and YEPD with 1.5 M NaCl. Rate of growth was estimated by recording OD 600 values at 24 hr intervals. All strains grew equally well in YEPD, but growth rates in YEPD with 1.5 M NaCl were distinctly different between transformants expressing mt1D or m1pdh and controls as shown in FIG. 3.
Nitrophenide was dissolved in DMSO and added to cultures at final concentrations of 1 μM, 2.5 μM or 10 μM. DMSO alone was also tested. Little toxicity was apparent for DMSO or for nitrophenide in YEPD except at 10 μM, a concentration at which slowing of the rate of growth of Δgpd1-pYES2/mt1D and Δgpd1-pYES2/MIPDH was observed as shown in FIG. 4. However, in YEPD with 1.5 M NaCl, nitrophenide was toxic to Δgpd1-pYES2/mt1D and Δgpd1-pYES2/MIPDH at concentrations as low as 2.5 uM and abolishes growth at 10 uM as shown in FIG. 4. Nitrophenide was also toxic to W303-1A under these conditions, but this strain grew more slowly than either of the transformants under salt pressure. The difference in rate of growth made comparisons between strains difficult.

[2] = tested on: Δgpd1-pYES2/mt1D (Saccharomyces cerevisiae Δgpd1 expressing E. coli mt1D); assay: Growth inhibition of yeast transformant Δgpd1-pYES2/mt1D in liquid YEPD with or without 1.5 M NaCl (OD 600); format: cell-based
Description: as §1, §2, §3
Nitrophenide was dissolved in DMSO and added to cultures at final concentrations of 1 μM, 2.5 μM or 10 μM. DMSO alone was also tested. […]

W303-1A = assay: Growth inhibition of wild-type yeast W303-1A in YEPD with 1.5 M NaCl (OD 600); format: cell-based, Saccharomyces cerevisiae
Description: as §1
as §2, with “Growth in nitrophenide-containing media was compared to growth in identical medium lacking nitrophenide by measuring and recording changes at OD 600 nm after 24, 48 or 72 hours in culture as described above.” left out

[3] = YEPD with 1.5 M NaCl, tested at 1, 2.5 and 10 μM
[4] = YEPD without added NaCl, little toxicity at lower concentrations

Q: For `O=[N+]([O-])c1cccc(SSc2cccc([N+](=O)[O-])c2)c1` [Nitrophenide, nitrophenide], which “concentration that abolishes growth” value ([1]; YEPD with 1.5 M NaCl) is on record?
A: 10 µM

Q: What about the “lowest concentration toxic to growth” value [1, 3] of the same compound?
A: 2.5 µM

Q: And the “concentration at which slowing of the rate of growth was observed” value [1, 4]?
A: 10 µM

Q: And the “effect on growth (FIG. 4)” value ([1]; medium containing 1.5 M NaCl)?
A: dramatically suppressed

Q: And the “toxicity compared with 1.5 M NaCl medium (FIG. 4)” value ([1]; medium with no additional NaCl)?
A: reduced

Q: What about the “concentration that abolishes growth” value ([2]; YEPD with 1.5 M NaCl) of the same compound?
A: 10 µM

Q: What about the “lowest concentration toxic to growth” value [2, 3] of the same compound?
A: 2.5 µM

Q: What about the “concentration at which slowing of the rate of growth was observed” value [2, 4] of the same compound?
A: 10 µM

Q: What about the toxicity to growth (W303-1A) of the same compound?
A: toxic
